Data: PubChem BioAssay AID179 (DTP/NCI, 2004)
Activity calls are given as the source filed them.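 How the source made its calls: active means compounds giving half or more protection of infected cells from virus-caused growth loss, again on retest; inactive means the rest.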 Where a SMILES comes first, the peptide text is derived from it. The star is where a group is joined. Boc = CC(C)(C)OC(=O)*

System: CEM cells HIV-1 protection, formazan growth assay
Experiment: NCI AIDS Antiviral Assay
Conditions: for IC50: measured here: growth of uninfected CEM cells
How it was run: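 Five concentrations of each compound were applied to infected and uninfected human CEM cells. Protection from HIV-1 was judged from growth measured with a soluble formazan assay.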

In the case of CCOC(=O)c1c2ccc(/C=C/c3ccccn3)ccc-2c(C(=O)OCC)c1N, the EC50 is reported as greater than 6.76 µM and the IC50 is reported as greater than 6.76 µM.
For O=[P+](O)c1ccccn1, the outcome was “inactive”.
For CCOC(=O)c1sc(SC)nc1NC(=O)c1ccc(Cl)cc1, the EC50 was greater than 200 µM and the IC50 was greater than 200 µM.
Work on COC(=O)C(=O)C(C(=O)C(=O)Nc1cc(C)ccc1C)c1nc2ccccc2[nH]c1=O (centres undefined) yielded an EC50 greater than 589 µM and an IC50 of 275 µM.
In the case of CCOC(=O)/C(C(N)=O)=C(/O)c1cnccn1, the EC50 is reported as greater than 200 µM and the IC50 is reported as greater than 200 µM.
In the case of COc1ccc(N2C(=O)CC(=O)N(C(=O)CCCCCCCCC(=O)N3C(=O)CC(=O)N(c4ccc(OC)cc4)C3=S)C2=S)cc1, the EC50 is reported as greater than 200 µM and the IC50 is reported as 102 µM.
O=C1/C(=C/c2cccc(Cl)c2)CCCc2ccccc21 showed an EC50 greater than 200 µM and an IC50 of 11.7 µM.
For COc1cc(OC)c(-c2cc(=O)c3c(OC)c(OC)c(OC)c(OC)c3o2)cc1OC, the EC50 was greater than 200 µM and the IC50 was 19.5 µM.
COc1ccc(N/C=C/C2=[N+](C)c3ccccc3C2(C)C)c(OC)c1 gave an EC50 greater than 479 µM and an IC50 of 38.9 µM.
COc1ccccc1NC(=O)C1=C(C)NC(C)=C(C(=O)Nc2ccccc2OC)C1c1ccccc1[N+](=O)[O-] showed an EC50 greater than 13.5 µM and an IC50 greater than 13.5 µM.
For Cc1ccc(-n2cc(/C(N)=N/O)c3ccccc3c2=O)cc1, the EC50 was greater than 89.1 µM and the IC50 was greater than 89.1 µM.
CC1CN(C2C=CC(=O)CC2)C(=O)NC1=O (centres undefined) was tested, and the EC50 was greater than 1120 µM and the IC50 was 7.76 µM.
With CC1=C(C(=O)Nc2ccccc2)C(c2cc(Cl)cc(Cl)c2)C(C(=O)Nc2ccccc2)=C(C)N1 the EC50 was greater than 14.5 µM and the IC50 was greater than 14.5 µM.
Compound C[CH2][Sn]([CH2]C)([O]C(=O)c1c(F)cccc1F)[O][Sn]([CH2]C)([CH2]C)[O]C(=O)c1c(F)cccc1F has an EC50 greater than 72.4 µM and an IC50 of 4.79 µM.
In the case of O=C1C=C(Br)C(=O)C(Br)=C1, the EC50 is reported as greater than 257 µM and the IC50 is reported as 23.4 µM.
In the case of COC(=O)C1c2c(C)cc3n2C(C=CC3)C1C(=O)OC (centres undefined), the EC50 is reported as greater than 324 µM and the IC50 is reported as 115 µM.
For CC(=O)C(=Cc1ccc(-c2ccccc2)cc1)C(C)=O, the EC50 was greater than 19.5 µM and the IC50 was greater than 19.5 µM.
Compound COc1ccc(OC2OC(COC(c3ccccc3)(c3ccc(OC)cc3)c3ccc(OC)cc3)C(O)C(O)C2O)cc1 (centres undefined) has an EC50 greater than 200 µM and an IC50 of 8.91 µM.
With Cc1nc2c(Br)cc(Br)cc2c(=O)n1-c1ccccc1N the EC50 was greater than 200 µM and the IC50 was 67.6 µM.
CCOc1ccc(NC(=O)/C(CC(=O)c2c[n+](=O)c3ccccc3n2[O-])=N\OCCCc2ccccc2)cc1 was tested, and the EC50 was greater than 123 µM and the IC50 was greater than 123 µM.
With N#C/C=C/c1ccc(Cl)cc1 the EC50 was greater than 219 µM and the IC50 was greater than 219 µM.
For O=C(CCCCCCCCC(=O)N1C(=O)CC(=O)N(c2cccc(Cl)c2)C1=S)N1C(=O)CC(=O)N(c2cccc(Cl)c2)C1=S, the EC50 was greater than 200 µM and the IC50 was 85.1 µM.
In the case of CCN(CC)CCC12CC(C)OC1=Nc1ccccc1NC2=O (centres undefined), the EC50 is reported as greater than 200 µM and the IC50 is reported as greater than 200 µM.
With N#Cc1c(-c2cccc3ccccc23)c2c([nH]c1=S)CCCC2 the EC50 was greater than 79.4 µM and the IC50 was 34.7 µM.
Compound O=c1cc(NNc2cccc3ccccc23)[nH]c(=O)[nH]1 has an EC50 greater than 200 µM and an IC50 of 4.9 µM.
Cc1cc(O)c2c(c1)C(C1c3cccc(O)c3C(=O)c3c(O)cc(C)cc31)c1cccc(O)c1C2=O (centres undefined) gave an EC50 greater than 2 µM and an IC50 of 0.0912 µM.
In the case of O=C(O)CCSCCCCCCCCCCCCSCCC(=O)O, the EC50 is reported as greater than 91.2 µM and the IC50 is reported as greater than 91.2 µM.
In the case of COc1nc2c(c(=O)n1C)N=C(c1ccc(Cl)cc1)CC(c1ccccc1)N2 (centres undefined), the EC50 is reported as greater than 200 µM and the IC50 is reported as 30.9 µM.
In the case of CN(C)c1nc2ccccc2[nH]1, the outcome is reported as “inactive”.
In the case of Cn1c(N)c(N=Nc2ccc(S(=O)(=O)Nc3nccs3)cc2)c(=O)n(C)c1=O, the outcome is reported as “inactive”.
CC(=O)C(O)N1C(=O)C=CC1=O (centres undefined) gave an EC50 greater than 50.1 µM and an IC50 of 1.86 µM.
In the case of O=[N+]([O-])c1cccc(-c2ncc3c(n2)-c2ccccc2C3)c1, the outcome is reported as “inactive”.
Compound NC(=O)C(=CNC(=S)c1ccncc1)C(N)=O has an EC50 greater than 200 µM and an IC50 greater than 200 µM.
Work on Cn1c(=O)sc2cc(C(=S)N3CCOCC3)ccc21 yielded an EC50 greater than 141 µM and an IC50 of 64.6 µM.
Work on Cn1c(=O)c(C(c2ccc([N+](=O)[O-])cc2)c2c(O)c3ccccc3n(C)c2=O)cc2ccccc21 (centres undefined) yielded an EC50 greater than 4.27 µM and an IC50 greater than 4.27 µM.
O=c1c2ccccc2[nH]c(=S)n1-c1cccc(C(F)(F)F)c1 was tested, and the EC50 was greater than 200 µM and the IC50 was greater than 200 µM.
For NNC(=O)C(CC(C(=O)NN)C(=O)NN)C(=O)NN, the EC50 was greater than 912 µM and the IC50 was 66.1 µM.
For COC1CCC(OS(C)(=O)=O)C(CO)O1 (centres undefined), the outcome was “inactive”.
In the case of COC(=O)C1=CCC2c3[nH]c4ccccc4c3CCN2C1 (centres undefined), the EC50 is reported as greater than 91.2 µM and the IC50 is reported as greater than 91.2 µM.
Compound COc1ccc(N=Nc2c(-c3c(OC)cc4occc4c3OC)[nH]c(=O)c(C#N)c2C)cc1 has an EC50 greater than 200 µM and an IC50 of 120 µM.
Work on COc1ccc2c(c1)CCc1c-2n(CCN2CCOCC2)c2ccc(OC)cc12 yielded an EC50 greater than 200 µM and an IC50 of 166 µM.
COc1ccc(C(=O)C(C(=O)C(=O)Nc2ccc(Cl)c(Cl)c2)c2ccc(OC)cc2)cc1 (centres undefined) showed an EC50 greater than 75.9 µM and an IC50 greater than 75.9 µM.
CC(C)OC/N=C(/N)NC#N gave an EC50 greater than 575 µM and an IC50 greater than 575 µM.
O=S1(=O)CCC(OC2CCS(=O)(=O)C2)C1 (centres undefined) gave an EC50 greater than 977 µM and an IC50 greater than 977 µM.
With CN(C(=O)C12C3C4C1C1C2C3C41C(=O)O)C(C)(C)C (centres undefined) the outcome was “inactive”.
Cn1c(=O)c2c3ccccc3n(C)c2n(C)c1=O showed an EC50 greater than 200 µM and an IC50 greater than 200 µM.
For COc1cc(OC)c(/C=C\c2ccnc3ccccc23)c(OC)c1, the EC50 was greater than 200 µM and the IC50 was 8.51 µM.
c1ccc(C2=NN3CN(N2)c2ccccc2OCCCOc2ccccc23)cc1 showed an EC50 greater than 200 µM and an IC50 of 105 µM.
O=C(O)c1nc(-c2ccc(Cl)c(Cl)c2)nc2ccc(Cl)cc12 was tested, and the outcome was “inactive”.
Work on COC(=O)C(Cc1c[nH]c2ccccc12)NC(=O)C(Cc1c[nH]c2ccccc12)NC(=O)C(Cc1c[nH]c2ccccc12)NC(=O)C(Cc1c[nH]c2ccccc12)NC(=O)C(Cc1c[nH]c2ccccc12)NC(=O)C(Cc1c[nH]c2ccccc12)NC(=O)C(Cc1c[nH]c2ccccc12)NC(=O)OC(C)(C)C (centres undefined) (Boc-WWWWWWW-OMe; configuration not given here) yielded an EC50 greater than 100 µM and an IC50 of 58.9 µM.
In the case of Cc1cc(=O)oc2ccccc12, the EC50 is reported as greater than 813 µM and the IC50 is reported as greater than 813 µM.
With COC(=O)Cc1c2n(c3ccccc13)C(=O)N1c3ccccc3C(CC(=O)OC)C21 (centres undefined) the EC50 was greater than 200 µM and the IC50 was greater than 200 µM.
Cc1cc(C)[n+]([O-])c(C)c1 showed an EC50 greater than 1820 µM and an IC50 of 977 µM.
Cc1cc(-c2ccc(C(=O)C(Cl)(Cl)Cl)[nH]2)on1 gave an EC50 greater than 200 µM and an IC50 of 17.8 µM.
Cc1ccc(C(=O)Nc2ccc(CP(=O)(O)O)cc2CP(=O)(O)O)cc1NC(=O)Nc1cc(C(=O)Nc2ccc(CP(=O)(O)O)cc2CP(=O)(O)O)ccc1C showed an EC50 greater than 200 µM and an IC50 greater than 200 µM.
Work on N#Cc1nc(C2CCC(=O)O2)oc1N (centres undefined) yielded an EC50 greater than 200 µM and an IC50 greater than 200 µM.
O=[N+]([O-])c1ccc(COc2cccc3cccnc23)cc1 showed an EC50 greater than 200 µM and an IC50 of 2.14 µM.
Compound CN(C)C(=O)OC(Cn1cncn1)(Cn1cncn1)c1ccc(Cl)cc1Cl has an EC50 greater than 200 µM and an IC50 greater than 200 µM.
Compound CC(C)(CCc1nc2ccccc2[nH]1)C(=O)O has an EC50 greater than 200 µM and an IC50 greater than 200 µM.
For COc1cc(O)c2c(=O)c(O)c(-c3ccc(O)c(OC)c3)oc2c1, the EC50 was greater than 200 µM and the IC50 was greater than 200 µM.
c1ccc(-c2nnc(-c3ccccc3)c3nonc23)cc1 showed an EC50 greater than 95.5 µM and an IC50 greater than 95.5 µM.
Work on CC1OC(c2ccccc2)=CC(OCc2ccccc2)[C@H]1OCc1ccccc1 (some centres undefined) yielded an EC50 greater than 200 µM and an IC50 of 91.2 µM.
For CCCCNC(=O)c1cc(S(=O)(=O)n2cc[nH]c2=O)c(SC)cc1Cl, the EC50 was greater than 200 µM and the IC50 was greater than 200 µM.
